Target: T1, Human TRPA1 (Homo sapiens, UniProt O75762)
T1 construct: expressed in transfected cells; host or cells: CHO cells
Test: 45Calcium uptake assay: inhibition of AITC induced cellular uptake of radioactive calcium
Assay type: cell-based
Details: AITC (30 μM) induced 45Ca uptake, Human TRPA1 expressing CHO cells; for inhibition at 1 µM: read-out: Percentage inhibition at 1.0 μM; for inhibition at 10 µM: read-out: Percentage inhibition at 10.0 μM; for IC50: read-out: Human IC50 value (range)
Source text: The illustrative examples of the present invention are screened for TRPA1 activity according to a modified procedure described in (a) Tóth, A. et al., Life Sciences, 2003, 73, 487-498. (b) McNamara C, R. et al., Proc. Natl. Acad. Sci. U.S.A., 2007, 104, 13525-13530. The screening of the compounds can be carried out by other methods and procedures known to persons skilled in the art.
Screening for TRPA1 Antagonist Using the ^45Calcium Uptake Assay
The inhibition of TRPA1 receptor activation was measured as inhibition of allyl isothiocyanate (AITC) induced cellular uptake of radioactive calcium. Test compounds were dissolved in DMSO to prepare 10 mM stock solution and then diluted using plain medium with 0.1% BSA and 1.8 mM CaCl2 to get desired concentration. Final concentration of DMSO in the reaction was 0.5% (v/v). Human TRPA1 expressing CHO cells were grown in F-12 DMEM medium with 10% FBS, 1% penicillin-streptomycin solution, 400 μg/ml of G-418. Cells were seeded 24 h prior to the assay in 96 well plates so as to get ˜50,000 cells per well on the day of experiment. Cells were treated with test compounds for 10 min followed by addition of AITC at a final concentration of 30 μM and 5 μCi/ml ^45Ca^+2 for 3 min. Cells were washed and lysed using buffer containing 1% Triton X-100, 0.1% deoxycholate and 0.1% SDS. Radioactivity in the lysate was measured in Packard Top count after addition of liquid scintillant. Concentration response curves were plotted as a % of maximal response obtained in the absence of test antagonist. IC50 value was calculated from concentration response curve by nonlinear regression analysis using GraphPad PRISM software.

T1 sequence (O75762 whole entry): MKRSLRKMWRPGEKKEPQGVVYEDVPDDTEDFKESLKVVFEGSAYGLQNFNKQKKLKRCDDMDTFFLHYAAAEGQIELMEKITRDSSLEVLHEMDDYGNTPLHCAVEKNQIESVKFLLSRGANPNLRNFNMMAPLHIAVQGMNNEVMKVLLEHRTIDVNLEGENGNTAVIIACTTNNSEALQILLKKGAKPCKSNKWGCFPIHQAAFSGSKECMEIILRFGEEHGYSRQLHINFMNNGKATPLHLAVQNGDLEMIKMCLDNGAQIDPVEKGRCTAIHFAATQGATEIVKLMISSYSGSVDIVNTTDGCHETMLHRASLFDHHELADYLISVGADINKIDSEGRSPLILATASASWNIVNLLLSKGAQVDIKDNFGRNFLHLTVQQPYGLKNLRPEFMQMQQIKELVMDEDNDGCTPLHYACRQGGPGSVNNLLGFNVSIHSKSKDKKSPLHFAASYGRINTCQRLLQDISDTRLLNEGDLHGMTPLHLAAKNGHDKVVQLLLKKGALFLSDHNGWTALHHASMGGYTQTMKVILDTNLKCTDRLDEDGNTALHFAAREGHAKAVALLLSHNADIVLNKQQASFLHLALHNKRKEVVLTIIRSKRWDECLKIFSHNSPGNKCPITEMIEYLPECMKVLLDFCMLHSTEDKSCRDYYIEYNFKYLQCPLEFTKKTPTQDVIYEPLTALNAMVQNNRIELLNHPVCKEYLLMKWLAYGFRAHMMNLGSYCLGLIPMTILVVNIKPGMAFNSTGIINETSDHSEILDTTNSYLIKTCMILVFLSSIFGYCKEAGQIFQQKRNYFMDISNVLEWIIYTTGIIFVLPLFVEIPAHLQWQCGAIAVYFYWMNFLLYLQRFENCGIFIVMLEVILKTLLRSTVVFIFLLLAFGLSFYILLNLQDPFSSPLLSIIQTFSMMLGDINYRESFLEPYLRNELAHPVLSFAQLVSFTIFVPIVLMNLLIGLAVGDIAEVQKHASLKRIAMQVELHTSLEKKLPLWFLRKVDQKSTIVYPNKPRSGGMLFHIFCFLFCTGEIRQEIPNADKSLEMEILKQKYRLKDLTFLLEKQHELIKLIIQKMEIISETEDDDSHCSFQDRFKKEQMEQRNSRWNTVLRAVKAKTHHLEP

Row | inhibition at 1 µM (1.0 μM test compound) | inhibition at 10 µM (10.0 μM test compound) | IC50 | Compound | Percentage inhibition at 1.0 μM (1.0 μM test compound) | Percentage inhibition at 10.0 μM (10.0 μM test compound)
1 | 37.8% | 64.8% |  | Cn1nc2c(c1CC(=O)Nc1nc(-c3cc(F)cc(F)c3)cs1)c(=O)n(C)c(=O)n2C [Example 52, N-[4-(3,5-Difluorophenyl)-1,3-thiazol-2-yl]-2-(2,5,7-trimethyl-4,6-dioxo-4,5,6,7-tetrahydro-2H-pyrazolo[3,4-d]pyrimidin-3-yl)acetamide] |  | 
2 | 23.1% | 21.4% |  | Cn1c(=O)c2c(ccn2CC(=O)Nc2nc(-c3ccc(F)cc3F)cs2)n(C)c1=O [Example 1, N-[4-(2,4-Difluorophenyl)-1,3-thiazol-2-yl]-2-(1,3-dimethyl-2,4-dioxo-1,2,3,4-tetrahydro-5H-pyrrolo[3,2-d]pyrimidin-5-yl)acetamide] |  | 
3 | 87.6% | 99.2% | < 50 nM | Cc1cc2c(c(=O)n(C)c(=O)n2C)n1CC(=O)Nc1nc(-c2cc(F)c(OCC3CCC3)c(F)c2)cs1 [Example 27, N-[4-(4-Cyclobutylmethoxy-3,5-difluorophenyl)-1,3-thiazol-2-yl]-2-(1,3,6-trimethyl-2,4-dioxo-1,2,3,4-tetrahydro-5H-pyrrolo[3,2-d]pyrimidin-5-yl)acetamide] |  | 
4 | 35.6% | 70.1% |  | Cn1c(=O)c2c(c(Br)cn2CC(=O)Nc2nc(-c3cc(F)c(OCC(C)(C)C)c(F)c3)cs2)n(C)c1=O [Example 36, 2-(7-Bromo-1,3-dimethyl-2,4-dioxo-1,2,3,4-tetrahydro-5H-pyrrolo[3,2-d]pyrimidin-5-yl)-N-{4-[3,5-difluoro-4-(2,2-dimethylpropoxy)phenyl]-1,3-thiazol-2-yl}acetamide] |  | 
5 | 44.1% | 78.2% |  | Cn1nc2c(c1CC(=O)Nc1nc(-c3ccc(C(F)(F)F)c(F)c3)c[nH]1)c(=O)n(C)c(=O)n2C [Example 85, N-{4-[3-Fluoro-4-(trifluoromethyl)phenyl]-1H-imidazol-2-yl]-2-(2,5,7-trimethyl-4,6-dioxo-4,5,6,7-tetrahydro-2H-pyrazolo[3,4-d]pyrimidin-3-yl)acetamide] |  | 
6 | 78.2% | 99.3% | 50 to 100 nM | Cn1c(=O)c2c(cnn2CC(=O)Nc2nc(-c3ccc(F)c(C(F)(F)F)c3F)cs2)n(C)c1=O [Example 71, N-{4-[2,4-Difluoro-3-(trifluoromethyl)phenyl]-1,3-thiazol-2-yl}-2-(4,6-dimethyl-5,7-dioxo-4,5,6,7-tetrahydro-1H-pyrazolo[4,3-d]pyrimidin-1-yl)acetamide] |  | 
7 | 57.6% | 98.4% |  | Cn1c(=O)c2c(cnn2CC(=O)Nc2nc(-c3ccc(Cl)cc3)cs2)n(C)c1=O [Example 67, N-[4-(4-Chlorophenyl)-1,3-thiazol-2-yl]-2-(4,6-dimethyl-5,7-dioxo-4,5,6,7-tetrahydro-1H-pyrazolo[4,3-d]pyrimidin-1-yl)acetamide] |  | 
8 | 99.1% | 99.9% | < 50 nM | Cn1c(=O)c2c(cnn2CC(=O)Nc2nc(-c3cc(F)c(OCC(F)(F)F)c(F)c3)cs2)n(C)c1=O [Example 73, N-{4-[3,5-Difluoro-4-(2,2,2-trifluoroethoxy)phenyl]-1,3-thiazol-2-yl}-2-(4,6-dimethyl-5,7-dioxo-4,5,6,7-tetrahydro-1H-pyrazolo[4,3-d]pyrimidin-1-yl)acetamide] |  | 
9 | 33.5% | 49.9% |  | Cn1c(=O)c2c(ccn2CC(=O)Nc2nc(-c3cc(F)c(OCC4CC4)c(F)c3)cs2)n(C)c1=O [Example 17, 2-(1,3-Dimethyl-2,4-dioxo-1,2,3,4-tetrahydro-5H-pyrrolo[3,2-d]pyrimidin-5-yl)-N-{4-[4-(cyclopropylmethoxy)-3,5-difluorophenyl]-1,3-thiazol-2-yl}acetamide] |  | 
10 | 91.9% | 100% | < 50 nM | Cn1c(=O)c2c(ccn2CC(=O)Nc2nc(-c3cc(F)c(OCC(C)(C)C)c(F)c3)cs2)n(C)c1=O [Example 8, N-{[4-(2,2-Dimethylpropoxy)-3,5-difluorophenyl]-1,3-thiazol-2-yl}-2-(1,3-dimethyl-2,4-dioxo-1,2,3,4-tetrahydro-5H-pyrrolo[3,2-d]pyrimidin-5-yl)acetamide] |  | 
11 | 55.3% | 82.3% |  | Cn1c(=O)c2c(ccn2CC(=O)Nc2nc(-c3ccc(Cl)c(Cl)c3Cl)cs2)n(C)c1=O [Example 5, 2-(1,3-Dimethyl-2,4-dioxo-1,2,3,4-tetrahydro-5H-pyrrolo[3,2-d]pyrimidin-5-yl)-N-[4-(2,3,4-trichlorophenyl)-1,3-thiazol-2-yl]acetamide] |  | 
12 | 72.1% | 76.9% |  | Cn1c(=O)c2c(ccn2CC(=O)Nc2nc(-c3cc(Cl)c(OCC4CCC4)c(Cl)c3)cs2)n(C)c1=O [Example 19, 2-(1,3-Dimethyl-2,4-dioxo-1,2,3,4-tetrahydro-5H-pyrrolo[3,2-d]pyrimidin-5-yl)-N-{4-[4-(cyclobutylmethoxy)-3,5-dichlorophenyl]-1,3-thiazol-2-yl}acetamide] |  | 
13 | 57% | 97.8% |  | CN(C)Cc1cn(CC(=O)Nc2nc(-c3ccc(C(F)(F)F)c(F)c3)cs2)c2c(=O)n(C)c(=O)n(C)c12 [Example 38, N-{4-[3-Fluoro-4-(trifluoromethyl)phenyl]-1,3-thiazol-2-yl}-2-{7-[(dimethylamino)methyl]-1,3-dimethyl-2,4-dioxo-1,2,3,4-tetrahydro-5H-pyrrolo[3,2-d]pyrimidin-5-yl}acetamide] |  | 
14 | 97.4% | 96% | < 50 nM | Cn1c(=O)c2c(ccn2CC(=O)Nc2nc(-c3cc(F)c(OCCC(F)(F)F)c(F)c3)cs2)n(C)c1=O [Example 12, N-{4-[3,5-Difluoro-4-(3,3,3-trifluoropropoxy)phenyl]-1,3-thiazol-2-yl}-2-(1,3-dimethyl-2,4-dioxo-1,2,3,4-tetrahydro-5H-pyrrolo[3,2-d]pyrimidin-5-yl)acetamide] |  | 
15 | 90.3% | 95.8% | < 50 nM | Cn1nc2c(c1CC(=O)Nc1nc(-c3ccc(C(F)(F)F)c(F)c3F)cs1)c(=O)n(C)c(=O)n2C [Example 62, N-{4-[2,3-difluoro-4-(trifluoromethyl)phenyl]-1,3-thiazol-2-yl}-2-(2,5,7-trimethyl-4,6-dioxo-4,5,6,7-tetrahydro-2H-pyrazolo[3,4-d]pyrimidin-3-yl)acetamide] |  | 
16 | 68.3% | 94.8% |  | Cc1cc2c(c(=O)n(C)c(=O)n2C)n1CC(=O)Nc1nc(-c2ccc(F)c(C(F)(F)F)c2F)cs1 [Example 25] |  | 
17 | 88.8% | 97% | > 100 nM | Cc1cn(CC(=O)Nc2nc(-c3cc(F)c(OCC(C)(C)C)c(F)c3)cs2)c2c(=O)n(C)c(=O)n(C)c12 [Example 34, N-{4-[3,5-Difluoro-4-(2,2-dimethylpropoxy)phenyl]-1,3-thiazol-2-yl}-2-(1,3,7-trimethyl-2,4-dioxo-1,2,3,4-tetrahydro-5H-pyrrolo[3,2-d]pyrimidin-5-yl)acetamide] |  | 
18 | 97.2% | 98.6% | < 50 nM | Cn1nc2c(c1CC(=O)Nc1nc(-c3ccc(F)c(C(F)(F)F)c3)cs1)c(=O)n(C)c(=O)n2C [Example 53, N-{4-[4-Fluoro-3-(trifluoromethyl)phenyl]-1,3-thiazol-2-yl}-2-(2,5,7-trimethyl-4,6-dioxo-4,5,6,7-tetrahydro-2H-pyrazolo[3,4-d]pyrimidin-3-yl)acetamide] |  | 

Row | Compound | inhibition at 1 µM (1.0 μM test compound) | inhibition at 10 µM (10.0 μM test compound) | IC50 | Percentage inhibition at 1.0 μM (1.0 μM test compound) | Percentage inhibition at 10.0 μM (10.0 μM test compound)
19 | CC(C)CCOc1c(F)cc(-c2csc(NC(=O)Cn3ncc4c3c(=O)n(C)c(=O)n4C)n2)cc1F [Example 76, N-{4-[3,5-Difluoro-4-(3-methylbutoxy)phenyl]-1,3-thiazol-2-yl}-2-(4,6-dimethyl-5,7-dioxo-4,5,6,7-tetrahydro-1H-pyrazolo[4,3-d]pyrimidin-1-yl)acetamide] | 84.3% | 95.6% | > 100 nM |  | 
20 | CC(C)COc1c(F)cc(-c2csc(NC(=O)Cn3ncc4c3c(=O)n(C)c(=O)n4C)n2)cc1F [Example 74, N-[4-(3,5-Difluoro-4-isobutoxyphenyl)-1,3-thiazol-2-yl]-2-(4,6-dimethyl-5,7-dioxo-4,5,6,7-tetrahydro-1H-pyrazolo[4,3-d]pyrimidin-1-yl)acetamide] | 92.1% | 98.8% | < 50 nM |  | 
21 | N-{4-[3,5-Dichloro-4-isobutoxyphenyl]-1,3-thiazol-2-yl}-2-(4,6-dimethyl-5,7-dioxo-4,5,6,7-tetrahydro-1H-pyrazolo[4,3-d]pyrimidin-1-yl)acetamide [Example 77] |  |  | 50 to 100 nM | 89.48% | 99.58%
